# Active and inactive are the calls of the source. The rule behind the calls is not given here.
# Test system: CCRIS mutagenicity, Ames/micronucleus/aberration tests
# Test: CCRIS mutagenicity studies
# [1] = Test System: AMES SALMONELLA TYPHIMURIUM, Strain/Indicator: TA98, Metabolic Activation: NONE, Method: PREINCUBATION
# [2] = Test System: AMES SALMONELLA TYPHIMURIUM, Strain/Indicator: TA98, Metabolic Activation: NONE, Method: STANDARD PLATE
# [3] = Test System: AMES SALMONELLA TYPHIMURIUM, Strain/Indicator: TA100, Metabolic Activation: NONE, Method: PREINCUBATION
# [4] = Test System: AMES SALMONELLA TYPHIMURIUM, Strain/Indicator: TA100, Metabolic Activation: NONE, Method: STANDARD PLATE
# [5] = Test System: AMES SALMONELLA TYPHIMURIUM, Strain/Indicator: TA1535, Metabolic Activation: NONE, Method: PREINCUBATION
# [6] = Test System: AMES SALMONELLA TYPHIMURIUM, Strain/Indicator: TA1535, Metabolic Activation: NONE, Method: STANDARD PLATE
structure (smiles),measurement,setting,value
Nc1ccc(S(=O)(=O)c2ccc(N)cc2)cc1,mutagenic call,[1],inactive; negative
same,mutagenic call,[2],inactive; negative
same,mutagenic call,"Test System: AMES SALMONELLA TYPHIMURIUM, Strain/Indicator: TA98, Metabolic Activation: RAT, LIVER, S-9, PCB, Method: STANDARD PLATE",inactive; negative
same,mutagenic call,[3],inactive; negative
same,mutagenic call,[4],inactive; negative
same,mutagenic call,"Test System: AMES SALMONELLA TYPHIMURIUM, Strain/Indicator: TA100, Metabolic Activation: RAT, LIVER, S-9, PCB, Method: STANDARD PLATE",inactive; negative
same,mutagenic call,"Test System: E. COLI, Strain/Indicator: WP2 UVRA, Metabolic Activation: HAMSTER, LIVER, S-9, AROCLOR 1254, Method: STANDARD PLATE",inactive; negative
same,mutagenic call,"Test System: E. COLI, Strain/Indicator: WP2 UVRA, Metabolic Activation: HAMSTER, LIVER, S-9, Method: STANDARD PLATE",inactive; negative
same,mutagenic call,"Test System: E. COLI, Strain/Indicator: WP2 UVRA, Metabolic Activation: MOUSE, LIVER, S-9, AROCLOR 1254, Method: STANDARD PLATE",inactive; negative
same,mutagenic call,"Test System: E. COLI, Strain/Indicator: WP2 UVRA, Metabolic Activation: MOUSE, LIVER, S-9, Method: STANDARD PLATE",inactive; negative
same,mutagenic call,"Test System: E. COLI, Strain/Indicator: WP2 UVRA, Metabolic Activation: NONE, Method: STANDARD PLATE",inactive; negative
same,mutagenic call,"Test System: E. COLI, Strain/Indicator: WP2 UVRA, Metabolic Activation: RAT, LIVER, S-9, AROCLOR 1254, Method: STANDARD PLATE",inactive; negative
same,mutagenic call,"Test System: E. COLI, Strain/Indicator: WP2 UVRA, Metabolic Activation: RAT, LIVER, S-9, Method: STANDARD PLATE",inactive; negative
Nc1ccc(O)c(N)c1,mutagenic call,"End Point: IN VITRO CHROMOSOMAL ABERRATIONS, Test System: CHINESE HAMSTER OVARY CELLS, Metabolic Activation: NONE",inactive; negative
same,mutagenic call,"End Point: IN VITRO CHROMOSOMAL ABERRATIONS, Test System: CHINESE HAMSTER OVARY CELLS, Metabolic Activation: RAT, LIVER, S-9, AROCLOR 1254",inactive; negative
same,mutagenic call,"Test System: AMES SALMONELLA TYPHIMURIUM, Strain/Indicator: TA98, Metabolic Activation: HAMSTER, LIVER, S-9, AROCLOR 1254 (10%), Method: PREINCUBATION",active; positive
same,mutagenic call,[1],inactive; negative
same,mutagenic call,"Test System: AMES SALMONELLA TYPHIMURIUM, Strain/Indicator: TA98, Metabolic Activation: RAT, LIVER, S-9, AROCLOR 1254 (10%), Method: PREINCUBATION",active; positive
same,mutagenic call,"Test System: AMES SALMONELLA TYPHIMURIUM, Strain/Indicator: TA100, Metabolic Activation: HAMSTER, LIVER, S-9, AROCLOR 1254 (10%), Method: PREINCUBATION",inactive; negative
same,mutagenic call,[3],inactive; negative
same,mutagenic call,"Test System: AMES SALMONELLA TYPHIMURIUM, Strain/Indicator: TA100, Metabolic Activation: RAT, LIVER, S-9, AROCLOR 1254 (10%), Method: PREINCUBATION",inactive; negative
same,mutagenic call,"Test System: AMES SALMONELLA TYPHIMURIUM, Strain/Indicator: TA1535, Metabolic Activation: HAMSTER, LIVER, S-9, AROCLOR 1254 (10%), Method: PREINCUBATION",inactive; negative
same,mutagenic call,[5],inactive; negative
same,mutagenic call,"Test System: AMES SALMONELLA TYPHIMURIUM, Strain/Indicator: TA1535, Metabolic Activation: RAT, LIVER, S-9, AROCLOR 1254 (10%), Method: PREINCUBATION",inactive; negative
same,mutagenic call,"Test System: AMES SALMONELLA TYPHIMURIUM, Strain/Indicator: TA1537, Metabolic Activation: HAMSTER, LIVER, S-9, AROCLOR 1254 (10%), Method: PREINCUBATION",inactive; negative
same,mutagenic call,"Test System: AMES SALMONELLA TYPHIMURIUM, Strain/Indicator: TA1537, Metabolic Activation: NONE, Method: PREINCUBATION",inactive; negative
same,mutagenic call,"Test System: AMES SALMONELLA TYPHIMURIUM, Strain/Indicator: TA1537, Metabolic Activation: RAT, LIVER, S-9, AROCLOR 1254 (10%), Method: PREINCUBATION",inactive; negative
same,mutagenic call,"Test System: MOUSE LYMPHOMA, Strain/Indicator: L5178Y (TK+/TK-), Metabolic Activation: NONE, Method: SUSPENSION/PLATE",active; positive
O=CC=C(Cl)Cl,mutagenic call,[2],active; positive
same,mutagenic call,"Test System: AMES SALMONELLA TYPHIMURIUM, Strain/Indicator: TA98, Metabolic Activation: RAT, LIVER, S-9, AROCLOR 1254, Method: STANDARD PLATE",inactive; negative
same,mutagenic call,[4],active; positive
same,mutagenic call,"Test System: AMES SALMONELLA TYPHIMURIUM, Strain/Indicator: TA100, Metabolic Activation: RAT, LIVER, S-9, AROCLOR 1254, Method: STANDARD PLATE",active; positive
same,mutagenic call,[6],active; positive
same,mutagenic call,"Test System: AMES SALMONELLA TYPHIMURIUM, Strain/Indicator: TA1535, Metabolic Activation: RAT, LIVER, S-9, AROCLOR 1254, Method: STANDARD PLATE",active; positive
same,mutagenic call,"Test System: AMES SALMONELLA TYPHIMURIUM, Strain/Indicator: TA1537, Metabolic Activation: NONE, Method: STANDARD PLATE",inactive; negative
same,mutagenic call,"Test System: AMES SALMONELLA TYPHIMURIUM, Strain/Indicator: TA1537, Metabolic Activation: RAT, LIVER, S-9, AROCLOR 1254, Method: STANDARD PLATE",inactive; negative
Clc1nncc2ccccc12,mutagenic call,[1],inactive; negative
same,mutagenic call,"Test System: AMES SALMONELLA TYPHIMURIUM, Strain/Indicator: TA98, Metabolic Activation: RAT, LIVER, S-9, PCB, Method: PREINCUBATION",inactive; negative
same,mutagenic call,[3],inactive; negative
same,mutagenic call,"Test System: AMES SALMONELLA TYPHIMURIUM, Strain/Indicator: TA100, Metabolic Activation: RAT, LIVER, S-9, PCB, Method: PREINCUBATION",inactive; negative
O=[N+]([O-])c1cc2ccccc2c2ccccc12,mutagenic call,"Test System: AMES SALMONELLA TYPHIMURIUM, Strain/Indicator: TA98(1,8-DNP6), Metabolic Activation: NONE, Method: STANDARD PLATE",active; positive
same,mutagenic call,"Test System: AMES SALMONELLA TYPHIMURIUM, Strain/Indicator: TA98(NR), Metabolic Activation: NONE, Method: STANDARD PLATE",active; positive
same,mutagenic call,[1],active; positive
same,mutagenic call,[2],active; positive
same,mutagenic call,"Test System: AMES SALMONELLA TYPHIMURIUM, Strain/Indicator: TA98, Metabolic Activation: RAT, LIVER, S-9, PCB (10%), Method: PREINCUBATION",inactive; negative
same,mutagenic call,[4],active; positive
same,mutagenic call,"Test System: AMES SALMONELLA TYPHIMURIUM, Strain/Indicator: TA7001, Metabolic Activation: NONE, Method: PREINCUBATION",active; positive
same,mutagenic call,"Test System: AMES SALMONELLA TYPHIMURIUM, Strain/Indicator: TA7002, Metabolic Activation: NONE, Method: PREINCUBATION",active; positive
same,mutagenic call,"Test System: AMES SALMONELLA TYPHIMURIUM, Strain/Indicator: TA7003, Metabolic Activation: NONE, Method: PREINCUBATION",inactive; negative
same,mutagenic call,"Test System: AMES SALMONELLA TYPHIMURIUM, Strain/Indicator: TA7004, Metabolic Activation: NONE, Method: PREINCUBATION",active; positive
same,mutagenic call,"Test System: AMES SALMONELLA TYPHIMURIUM, Strain/Indicator: TA7005, Metabolic Activation: NONE, Method: PREINCUBATION",active; positive
same,mutagenic call,"Test System: AMES SALMONELLA TYPHIMURIUM, Strain/Indicator: TA7006, Metabolic Activation: NONE, Method: PREINCUBATION",active; positive
same,mutagenic call,"Test System: AMES SALMONELLA TYPHIMURIUM, Strain/Indicator: YG1021, Metabolic Activation: NONE, Method: STANDARD PLATE",active; positive
same,mutagenic call,"Test System: AMES SALMONELLA TYPHIMURIUM, Strain/Indicator: YG1024, Metabolic Activation: NONE, Method: STANDARD PLATE",active; positive
same,mutagenic call,"Test System: AMES SALMONELLA TYPHIMURIUM, Strain/Indicator: YG1026, Metabolic Activation: NONE, Method: STANDARD PLATE",active; positive
same,mutagenic call,"Test System: AMES SALMONELLA TYPHIMURIUM, Strain/Indicator: YG1029, Metabolic Activation: NONE, Method: STANDARD PLATE",active; positive
c1ccc(CCC2CO2)cc1 (stereo unspecified),mutagenic call,[3],active; positive
same,mutagenic call,[4],active; positive
same,mutagenic call,[5],active; positive
same,mutagenic call,[6],active; positive
O=c1c2ccccc2[nH]c2ccccc12,mutagenic call,"Test System: AMES SALMONELLA TYPHIMURIUM, Strain/Indicator: TA100, Metabolic Activation: GUINEA PIG, LIVER, S-9, 3-METHYLCHOLANTHRENE, Method: STANDARD PLATE",inactive; negative

# From PubChem BioAssay AID1259407 (Chemical Carcinogenesis Research Information System (CCRIS), 2018)
